The assay addresses ALCAT1 (Homo sapiens (Human), UniProt Q6UWP7). As to the kind of experiment: In vitro acyltransferase assay for ALCAT1 inhibitors. The format is biochemical. The settings on record: for inhibition at 1 µM / % inh @ 1 μM: 1 μM compound; for inhibition at 1 µM / inhibition at 10 µM / % inh @ 1 μM: in vitro enzymatic assay; for inhibition at 10 µM: 10 μM compound; for IC50: ALCAT1 enzyme activity. From the text:
The human ALCAT1 protein were expressed in Spodoptera frugiperda (Sf9) insect cells by using a Bac-to-Bac baculovirus expression system (Invitrogen) according to the manufacturer's instruction. High-titer recombinant baculovirus expressing the human ALCAT1 protein was generated by several rounds of viral amplification. The Sf9 cells were typically infected with recombinant baculovirus for 3 days, harvested in ice-cold phosphate-buffered saline (PBS), and homogenized in 20 mm NaCl by going through French press. The total cell lysates were centrifuged at 10,000×g for 1 hours at 4° C. to eliminate the nucleus fraction, followed by ultracentrifugation at 100,000×g to pallet the membrane fraction. The membrane fraction was resuspended in enzymatic buffer that contain 10% glycerol, quantified for protein concentration, aliquoted, and stored at −80° C.
ALCAT1 enzymatic activity was determined by measuring the conversion of monolysocardiolipin (MLCL) to cardiolipin or lysophosphatidylglycerol (LPG) to phosphatidylglycerol (PG) in an enzymatic reaction mixture that contained 50 mm Tris/HCl, pH 7.0, 100 μm lysophospholipids, 25 μm [^14C]acyl-CoA (50 mCi/mmol, American Radiolabeled Chemicals, Inc), and membrane fraction (0.5-2.5 μg) in a total volume of 200 μl. The reaction was incubated at room temperature for 30 min. The lipids were extracted will chloroform, dried, and separated by thin layer chromatography (TLC) with chloroform:hexane:methanol:acetic acid (50:30:10:5, v/v) or chloroform:methanol:water (65:25:4, v/v). After separation, TLC plates were exposed to a Phosphorlmager screen to visualize the radiolabeled products with a Molecular Dynamics Typhoon Scanner (Sunnyvale, Calif.). In some experiments, NBD-CoA was used at 100 μM to replace the [^14C]acyl-CoA in the enzymatic reaction. All quantitative data were expressed as mean±S.E. Statistical analyses for differences between two groups were carried out using a Student's t test.
Compound inhibitors for ALCAT1 enzyme were analyzed by an in vitro enzymatic assay as detailed above. Compound inhibitors were added to the enzymatic mixture at 1-20 μM concentrations before the start of the acyltransferase reaction.
Where multiple measurements were taken this is indicated by a “/” between multiple values.
IC50 values for each compound were analyzed in triplicates, and calculated by GraphPad software.

The mark [1] stands for this setting: triplicates, GraphPad, read-out: IC50.

Like-named read-outs stand apart in the source and are kept apart here.

Sequence of ALCAT1 (Q6UWP7 whole entry): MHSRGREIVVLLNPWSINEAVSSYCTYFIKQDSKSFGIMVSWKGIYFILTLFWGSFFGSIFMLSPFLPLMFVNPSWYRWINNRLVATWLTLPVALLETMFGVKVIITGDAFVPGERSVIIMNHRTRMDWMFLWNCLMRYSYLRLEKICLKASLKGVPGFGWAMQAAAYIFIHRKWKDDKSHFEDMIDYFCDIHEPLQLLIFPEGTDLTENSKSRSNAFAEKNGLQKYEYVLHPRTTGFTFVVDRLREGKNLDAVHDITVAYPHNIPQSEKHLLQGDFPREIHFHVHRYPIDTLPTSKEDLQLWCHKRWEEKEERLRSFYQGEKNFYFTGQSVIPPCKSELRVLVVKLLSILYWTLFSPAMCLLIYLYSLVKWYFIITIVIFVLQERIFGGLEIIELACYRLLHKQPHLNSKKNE

As for `O=C(Nc1cccc(-c2nnc(-c3ccco3)o2)c1)c1ccc(I)cc1` [Compound 84], at 1 µM the inhibition was 5%.

Compound `O=C(Nc1cccc(-c2nnc(-c3ccco3)o2)c1)c1ccc([N+](=O)[O-])cc1` [Compound 85] had an inhibition at 1 µM of 10% and an inhibition at 10 µM of 3%.

For the compound `O=C(Nc1cccc(-c2nnc(-c3ccco3)o2)c1)c1cccc([N+](=O)[O-])c1` [Compound 87], the inhibition at 1 µM was 29% and the inhibition at 10 µM was 62%.

`O=C(Nc1cccc(-c2nnc(-c3ccco3)o2)c1)C1CCCCC1` [Compound 98]: 1 µM produced 11% inhibition and the inhibition at 10 µM came to 2%.

As for `O=C(Nc1cccc(-c2nnc(-c3ccco3)o2)c1)c1ccco1` [Compound 100], the inhibition at 1 µM was 3% and 10 µM produced 7% inhibition.

Take `COc1ccc(I)cc1C(=O)Nc1cccc(-c2nnc(-c3ccco3)o2)c1` [Compound 113]: at 1 µM the inhibition was 96% and the inhibition at 10 µM turned out to be 94%. For the same compound, the IC50 under setting [1] was found to be 0.11 µM.

Compound `COc1ccc(C(=O)O)cc1C(=O)Nc1cccc(-c2nnc(-c3ccco3)o2)c1` [Compound 114] gave an inhibition at 1 µM of 36% and an inhibition at 10 µM of 48%.

As to `COC(=O)c1ccc(OC)c(C(=O)Nc2cccc(-c3nnc(-c4ccco4)o3)c2)c1` [Compound 115], the inhibition at 1 µM is 51% and testing at 10 µM gave an inhibition of 53%.

Compound `CCCOc1ccc(Br)cc1C(=O)Nc1cccc(-c2nnc(-c3ccco3)o2)c1` [Compound 119, 5-Bromo-N-(3-(5-(furan-2-yl)-1,3,4-oxadiazol-2-yl)phenyl)-2-propoxybenzamide] gave an inhibition at 1 µM of 92% and an inhibition at 10 µM of 95%. For the same compound, the IC50 under setting [1] stood at 0.09 µM.

With `COc1ccc(Br)cc1C(=O)Nc1cccc(-c2nnc(-c3ccco3)o2)c1` [Compound 120, 5-Bromo-N-(3-(5-(furan-2-yl)-1,3,4-oxadiazol-2-yl)phenyl)-2-methoxybenzamide], the inhibition at 1 µM was 94% and the inhibition at 10 µM stood at 100%. For the same compound, the IC50 under setting [1] was 0.038 µM.

Compound `CCOc1ccc(Cl)cc1C(=O)Nc1cccc(-c2nnc(-c3ccco3)o2)c1` [Compound 122, 5-Chloro-2-ethoxy-N-(3-(5-(furan-2-yl)-1,3,4-oxadiazol-2-yl)phenyl)benzamide] returned an inhibition at 1 µM of 100% and an inhibition at 10 µM of 100%. The IC50 under setting [1] is 0.039 µM.

In turn, `CCCOc1ccc(Cl)cc1C(=O)Nc1cccc(-c2nnc(-c3ccco3)o2)c1` [Compound 123, 5-Chloro-N-(3-(5-(furan-2-yl)-1,3,4-oxadiazol-2-yl)phenyl)-2-propoxybenzamide] came in with an inhibition at 1 µM of 90% and an inhibition at 10 µM of 100%. For the same compound, under setting [1], the IC50 was found to be 0.087 µM.

In the case of `COc1ccc(Cl)cc1C(=O)Nc1cccc(-c2nnc(-c3ccco3)o2)c1` [Compound 124, 5-Chloro-N-(3-(5-(furan-2-yl)-1,3,4-oxadiazol-2-yl)phenyl)-2-methoxybenzamide], the inhibition at 1 µM was 92% and the inhibition at 10 µM came out at 100%. Moreover, the half-maximal inhibitory concentration (IC50) under setting [1] turned out to be 0.062 µM.

Consider `CCOc1ccc(F)cc1C(=O)Nc1cccc(-c2nnc(-c3ccco3)o2)c1` [Compound 125, 2-Ethoxy-5-fluoro-N-(3-(5-(furan-2-yl)-1,3,4-oxadiazol-2-yl)phenyl)benzamide], for which testing at 1 µM gave an inhibition of 92% and the inhibition at 10 µM is 97%. In addition, the 50% inhibitory concentration (IC50) under setting [1] was found to be 0.067 µM.

As to `CCCOc1ccc(F)cc1C(=O)Nc1cccc(-c2nnc(-c3ccco3)o2)c1` [Compound 126], the inhibition at 1 µM came out at 83% and the inhibition at 10 µM was found to be 100%. Also, the 50% inhibitory concentration (IC50) under setting [1] was 0.11 µM.

With `COc1ccc(F)cc1C(=O)Nc1cccc(-c2nnc(-c3ccco3)o2)c1` [Compound 127], the inhibition at 1 µM stood at 85% and the inhibition at 10 µM stood at 100%. The half-maximal inhibitory concentration (IC50) under setting [1] stood at 0.21 µM.

The compound `COc1ccccc1C(=O)Nc1cc(-c2nnc(-c3ccco3)o2)ccc1F` [Compound 128, N-(2-Fluoro-5-(5-(furan-2-yl)-1,3,4-oxadiazol-2-yl)phenyl)-2-methoxybenzamide] registered an inhibition at 1 µM of 100% and an inhibition at 10 µM of 100%. The half-inhibitory concentration (IC50) (read-out: IC50 values (upper bounds)) is under 0.1 µM. Besides, the IC50 under setting [1] amounted to 0.029 µM.

As to `O=C(Nc1cc(F)cc(-c2nnc(-c3ccco3)o2)c1)c1ccccc1F` [Compound 130], the “% inh @ 1 μM” value turned out to be 57% and the inhibition at 1 µM stood at 50%.

Take `Cc1cc(NC(=O)c2ccccc2F)cc(-c2nnc(-c3ccco3)o2)c1` [Compound 132]: the “% inh @ 1 μM” value stood at 39% and the inhibition at 1 µM worked out at 26%.

As to `COc1cc(NC(=O)c2ccccc2F)cc(-c2nnc(-c3ccco3)o2)c1` [Compound 133], the “% inh @ 1 μM” value stood at 17% and testing at 1 µM gave an inhibition of 19%.

Take `O=C(Nc1cccc(-c2nnc(-c3ccco3)s2)c1)c1ccccc1F` [Compound 135]: the “% inh @ 1 μM” value is reported as 62% and the inhibition at 1 µM worked out at 56%.

Turning to `COc1ccc(NC(=O)c2ccccc2F)cc1-c1nnc(-c2ccco2)o1` [Compound 136], the “% inh @ 1 μM” value is 23% and the inhibition at 1 µM came out at 28%.

Consider `O=C(Nc1cccc(-c2nnc(-c3cnco3)o2)c1)c1ccccc1F` [Compound 137], for which the “% inh @ 1 μM” value was 48% and the inhibition at 1 µM was 37%.

For the compound `O=C(Nc1cc(-c2nnc(-c3ccno3)o2)ccc1F)c1ccccc1F` [Compound 139], the “% inh @ 1 μM” value stood at 48% and at 1 µM the inhibition was 50%.

Consider `COc1c(NC(=O)c2ccccc2F)cccc1-c1nnc(-c2ccco2)o1` [Compound 140], for which the inhibition at 1 µM worked out at 29%.

Compound `O=C(Nc1cccc(-c2nnc(-c3ccco3)o2)c1)c1cc(Br)ccc1I` [Compound 141] had an inhibition at 1 µM of 65% and an inhibition at 10 µM of 67%.

As for `O=C(Nc1cccc(-c2nnc(-c3ccco3)o2)c1)c1c(F)cccc1F` [Compound 143], the inhibition at 1 µM worked out at 13% and at 10 µM the inhibition was 17%.

As for `O=C(Nc1cccc(-c2nnc(-c3ccco3)o2)c1)c1cc(F)c(F)cc1F` [Compound 144], 1 µM produced 73% inhibition and the inhibition at 10 µM is 92%. For the same compound, the IC50 under setting [1] was 0.13 µM.

`O=C(Nc1cccc(-c2nnc(-c3ccco3)o2)c1)c1c(F)cccc1Cl` [Compound 145]: the inhibition at 1 µM is 9% and at 10 µM the inhibition was 38%.

Take `O=C(Nc1cccc(-c2nnc(-c3ccco3)o2)c1)c1cccc(Cl)c1Cl` [Compound 150]: the inhibition at 1 µM worked out at 72% and at 10 µM the inhibition was 92%. The IC50 under setting [1] amounted to 0.41 µM.

`COc1cccc(C(=O)Nc2cccc(-c3nnc(-c4ccco4)o3)c2)c1OC` [Compound 169] returned an inhibition at 1 µM of 74% and an inhibition at 10 µM of 93%. Also, under setting [1], the IC50 amounted to 0.47 µM.

`COc1cccc(OC)c1C(=O)Nc1cccc(-c2nnc(-c3ccco3)o2)c1` [Compound 170] yielded an inhibition at 1 µM of 20% and an inhibition at 10 µM of 27%.

For `COc1ccc(OC)c(C(=O)Nc2cccc(-c3nnc(-c4ccco4)o3)c2)c1` [Compound 171], 1 µM produced 79% inhibition and at 10 µM the inhibition was 100%. In addition, under setting [1], the IC50 amounted to 0.35 µM.

As for `CC(=O)Nc1ccccc1C(=O)Nc1cccc(-c2nnc(-c3ccco3)o2)c1` [Compound 172], the inhibition at 1 µM is 6% and 10 µM produced 26% inhibition.

`CCOc1ccccc1C(=O)Nc1cccc(-c2nnc(-c3ccco3)o2)c1` [Compound 174] yielded an inhibition at 1 µM of 96% and an inhibition at 10 µM of 100%. For the same compound, the 50% inhibitory concentration (IC50) under setting [1] came to 0.11 µM.

Take `CCCOc1ccccc1C(=O)Nc1cccc(-c2nnc(-c3ccco3)o2)c1` [Compound 175]: 1 µM produced 90% inhibition and the inhibition at 10 µM amounted to 100%. Further, the 50% inhibitory concentration (IC50) under setting [1] is 0.15 µM.

The compound `Cc1ccc(F)c(C(=O)Nc2cccc(-c3nnc(-c4ccco4)o3)c2)c1` [Compound 176] returned an inhibition at 1 µM of 73% and an inhibition at 10 µM of 100%. Besides, the IC50 under setting [1] was 0.22 µM.

`O=C(Nc1cccc(-c2nnc(-c3ccco3)o2)c1)c1ccc2c(c1)OCO2` [Compound 177] showed an inhibition at 1 µM of 3% and an inhibition at 10 µM of 1%.

Consider `O=C(Nc1cccc(-c2nnc(-c3ccco3)o2)c1)c1cccc2c1OCO2` [Compound 178], for which the inhibition at 1 µM was determined as 27%.

Turning to `COc1cccc(F)c1C(=O)Nc1cccc(-c2nnc(-c3ccco3)o2)c1` [Compound 179], 1 µM produced 17% inhibition and the inhibition at 10 µM was 41%.

For the origin of these results see patent US11208404B2 (PERENNA PHARMACEUTICALS, INC., priority 2017, dated 2021).
